Experimental data as given in US10925858B2, “S-nitrosoglutathione (GSNO) and GSNO reductase inhibitors for use in therapy” (MUSC FOUNDATION FOR RESEARCH DEVELOPMENT, priority 2017, dated 2021).

Tests used:
[1] = tested on: IFN-γ, IL-4, IL-17, IL-10; assay: ELISA of CD4+ T cell subset specific cytokines in culture media of CNS derived lymphocytes of EAE mice; assay type: in vivo, C57BL/6 mice; details: N6022 1 mg/kg/day
Protocol: Female C57BL/6 mice of 8-12 weeks of age, purchased from Jackson Laboratory, were provided with food and water ad libitum and were kept in pathogen free animal care facility of Medical University of South Carolina (MUSC) throughout the study. All procedures were conducted in accordance with accepted standards of humane care as approved by the Institutional Animal Care and Use Committee (Approved number: AR #1644). EAE was induced as described previously (Nath et al., 2009). Briefly, mice were immunized subcutaneously in the flank regions with MOG35-55 peptide (MOG; 200 μg; Peptide International) emulsified (1:1) in 100 ul complete Freund's adjuvant (CFA) on day 0 and day 7. Additionally, 300 ng of Pertussis toxin (Sigma-Aldrich, St. Louis, Mo.) was given on day 0 and day 2 by i.p. injection. Pertussis toxin used as per the standardized protocol reported by us and other investigators for the induction of EAE (Nath et al., 2009). Similarly, healthy control group received subcutaneous injection of PBS and CFA emulsion on day 0 and day 7. Clinical signs of EAE were scored by examiners blinded to experimental treatments using the following scale: 0=no clinical signs of disease; 1=piloerection and sluggish; 2=limp tail (ataxia); 2.5=ataxia with partial hind limb paralysis; 3=full paralysis of hind limb; 3.5=full paralysis of hind limb with paralysis of one fore limb; 4=full paralysis of two limbs; 4.5=moribund stage; 5=death. […] The drug treatments were continued till the termination of the study (day 41 post immunization). EAE animals without drug treatment received PBS. Likewise, healthy controls received vehicle.
Fluorescence flow cytometry analysis for each subset of CD4+ T cells (TH1, TH2, TH17, CD4+CD25+ FOXP3+ Treg, and CD4+CD25+ FOXP3− Treg) were performed based on our previous report with modification (Nath et al., 2004). Briefly, control mice, EAE mice. EAE mice treated with GSNO. […] Following the preparation of single cell suspension, red blood cells were lysed with Pharma lyse buffer (BD Pharmingen™) and the remaining spleen cells were washed with RPMI 1640. The isolated CD4+ T cells were then resuspended with complete RPMI-media in 12-well plates (5×10^6 cells' 2 ml per well) containing MOG peptide (25 μg/ml) for 48 hrs. […] The cell pellets were washed with cell staining solution (ebioscience, Waltham, Mass. USA) and stained with fluorescence labeled antibody specific to IFN-γ for TH1. […] The cells were counted and analyzed using Beackman Coulter instrument (Beckman Coulter, Inc., Brea, Calif., USA).
ELISA assay was performed for analysis of CD4+ T cell subset specific cytokines released from cultured cells or spinal cord tissues. […] The equal amounts of proteins were analyzed for ELISA for IFN-γ. […]

myelin = assay: Myelin status in spinal cords of EAE mice (immunofluorescent staining for MBP, Western for MBP and PLP); assay type: in vivo, C57BL/6 mice; details: 1 mg/kg/day, N6022 vs FTY720
Protocol: Female C57BL/6 mice of 8-12 weeks of age, purchased from Jackson Laboratory, were provided with food and water ad libitum and were kept in pathogen free animal care facility of Medical University of South Carolina (MUSC) throughout the study. All procedures were conducted in accordance with accepted standards of humane care as approved by the Institutional Animal Care and Use Committee (Approved number: AR #1644). EAE was induced as described previously (Nath et al., 2009). Briefly, mice were immunized subcutaneously in the flank regions with MOG35-55 peptide (MOG; 200 μg; Peptide International) emulsified (1:1) in 100 ul complete Freund's adjuvant (CFA) on day 0 and day 7. Additionally, 300 ng of Pertussis toxin (Sigma-Aldrich, St. Louis, Mo.) was given on day 0 and day 2 by i.p. injection. […] Clinical signs of EAE were scored by examiners blinded to experimental treatments using the following scale: 0=no clinical signs of disease; 1=piloerection and sluggish; 2=limp tail (ataxia); 2.5=ataxia with partial hind limb paralysis; 3=full paralysis of hind limb; 3.5=full paralysis of hind limb with paralysis of one fore limb; 4=full paralysis of two limbs; 4.5=moribund stage; 5=death. […]
Tissue samples were embedded in paraffin block and sectioned transversely (5 μm-thick). […] For the quantitation of infiltrates, the digital images were analyzed by ImageJ (NIH, Bethesda, Md.). […]

**Q.** With `Cc1cc(C(N)=O)ccc1-n1c(CCC(=O)O)ccc1-c1ccc(-n2ccnc2)cc1` [N6022, reference compound] as the molecule, how does the “IFN-γ in culture media of CNS derived lymphocytes” value [1] read?
**A.** decreased

**Q.** What about the “IL-4 release of CNS derived lymphocytes” value [1] of the same molecule?
**A.** increased

**Q.** What about the “IL-17 in culture media of CNS derived lymphocytes” value [1] of the same molecule?
**A.** decreased

**Q.** What about the “IL-10 expression of CNS derived lymphocytes” value ([1]; vs control levels) of the same molecule?
**A.** increased

**Q.** What about the “protection against myelin loss in the spinal cords” value (myelin) of the same molecule?
**A.** protects against the myelin loss in the spinal cords of EAE mice greater than FTY720 treatment
